Results on 37 molecules are retold here after a melting point compilation (Tetko et al.; mined from patent text by program, amines drawn as free bases though some values may be those of a salt).

In general, melting point refers to the temperature, or range, at which the solid turns liquid. Regarding `CC(C)(C)c1cc(Cl)ccc1N1CCN(C(=O)C(=O)O)CC1`, the melting point was 154 to 155 °C.
In turn, `Cc1nc2c(c3c1[nH]c1ccccc13)CCC(C)(C)C2` returned a melting point of 241 to 243 °C.
With `Oc1ccc2c(c1)cc1n2CCC1` the figure was 116 to 118 °C; with `O=[N+]([O-])c1ccc(OCc2ccc3ccccc3n2)cc1`, 142 to 143 °C; with `CNC(=S)C1(c2ccccn2)CCCS1` (configuration not stated), 131 °C.
With `CCCCN(CC1Cc2cc(Cl)cc(Cl)c2O1)C(=O)n1ccnc1` (configuration not stated) the figure was 98 to 100 °C.
Under `Cc1cc2c(cc1-c1csc(C=CC(=O)O)c1)C(C)(C)CCC2(C)C` stands 215 to 220 °C; under `COc1ccc(C2CNC(=O)C2)cc1OS(=O)(=O)C(F)(F)F` (configuration not stated), 99 to 101 °C; under `C=C1N(CCCC)C(=O)OC12CCN(CCC=C(c1ccc(F)cc1)c1ccc(F)cc1)CC2`, 92 to 93 °C.
Regarding `Cn1c2ccc(OCc3ccccc3)cc2c2c(CC(=O)N3CCCC3)nn(-c3ccccc3)c(=O)c21`, the melting point lay within 203 to 204 °C.
Under `CC(=O)n1c(-c2ccc(C#N)cc2)cc2ccccc21` stands 158 to 160 °C.
With `COC(=O)C(C)(c1ccc([N+](=O)[O-])cc1)c1cc(C)c(C(=O)c2ccc(Cl)cc2)n1C` (configuration not stated) the figure was 181 to 182 °C.
As for `O=C(Nc1ccc(Oc2ccccc2)cc1)Nc1sccc1C(=O)O`, the melting point is 195 to 198 °C.
With `CC(C)n1c(=O)sc2cc([N+](=O)[O-])ccc21` the figure was 138 to 142 °C.
With `COc1cc([N+](=O)[O-])c(N)cc1C(=O)N1CCCC1` the figure was 159 to 162 °C; with `O=S1(=O)c2ccccc2-n2c(Cl)nnc21`, 218 to 220 °C; with `COc1cc2ncnc(C3C(=O)N(C)c4ccccc43)c2cc1OC` (configuration not stated), 233 to 235 °C.
With `O=C(NCc1ccccc1)Nc1nnc(C(=O)OCc2ccccc2)s1` the figure was 188 to 192 °C.
`Cc1ncc2cc(C#N)c(O)nc2n1` registered a melting point of over 200 °C.
With `NC(=O)c1c(F)ccc(OCc2nc3ccc(Cl)cc3s2)c1F` the figure was 190 to 191 °C.
With `COC(=O)c1cc(C=O)ccc1C` the figure was 60 to 61 °C; with `O=C(c1ccc(-c2ccnnc2)cc1)N1CCN(S(=O)(=O)c2cc3cc(Cl)ccc3[nH]2)CC1`, 170 to 172 °C.
Under `C=CCOC(=O)c1c(C)nc2c(cnn2C/C=C\CC)c1N` stands 78 to 81 °C; under `CCOC(=O)Nc1ccc(C2CCN(C(=O)OC(C)(C)C)CC2)cc1`, 126 to 128 °C; under `CC(c1ccc2[nH]nc(S(=O)(=O)c3cccc4ccccc34)c2c1)N1CCN(C)CC1` (configuration not stated), 183 to 185 °C.
`CC(C)(C)NS(=O)(=O)c1ccccc1C=C1CCOC1=O`: the melting point fell in the range of 173 to 176 °C.
In turn, `NC(=O)N1CCN(CC(=O)N2CCOCC2)CC1` displayed a melting point of 165 °C.
With `CNC(=O)Cn1c(Cl)ccc1Cl` the figure was 193 to 194 °C; with `CS(=O)(=O)COC(=O)c1oc(-c2ccccc2)cc(=O)c1Br`, 192 °C.
The molecule `O=Cc1cc(CSc2c(Cl)cccc2Cl)ccc1O` came in with a melting point of 114 to 117 °C.
With `Cc1nc(Nc2ccccc2)sc1-c1cccnc1` the figure was 178 to 180 °C; with `COCCc1nc2c(N)nc3c(c2n1CCOCCNC(=O)c1ccccc1)CCCC3`, 141 to 143 °C; with `CC(C)(C)c1ccc(C(=O)Nc2cn3cc(-c4cn[nH]c4)ccc3n2)cn1`, 238 to 240 °C.
Under `CC(=O)c1ccc(OCc2cccc(N)c2)cc1O` stands 153 to 154 °C; under `CCCc1csc2ncc(C(=O)OC)n12`, 149 to 150 °C.
With `CCCCN(CCCC)CCCNC(=O)c1ccc2oc3ccc(C(=O)NCCCN(CCCC)CCCC)cc3c(=O)c2c1` the figure was 89 to 92 °C.
The molecule `CCOc1cc2ncc(Nc3cccc(F)c3)nc2cc1OCC` gave a melting point of 193 °C.
